Common to all, as to assay: kinase selectivity panel
Common to all, as to assay type: biochemical

In one assay the target is T1, CaMKIIδ (Homo sapiens, UniProt Q13557).
T1 construct: purchased Eurofins Pharma Discovery Services (KinaseProfiler; Cerep BioPrint panel)
Particulars: read-out: percentage of control activity (POC), CaMKIIδ. The essentials:
(§1)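 The compound is screened at 10 μM in duplicate against 125 representative kinases. Selected activities are followed up with a nine-concentration duplicate titration to give IC50.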

A further assay deals with T2, IRAK4 (Homo sapiens, UniProt Q9NWZ3).
T2 construct: purchased Eurofins Pharma Discovery Services (KinaseProfiler; Cerep BioPrint panel)
T2 sequence (Q9NWZ3 1-460): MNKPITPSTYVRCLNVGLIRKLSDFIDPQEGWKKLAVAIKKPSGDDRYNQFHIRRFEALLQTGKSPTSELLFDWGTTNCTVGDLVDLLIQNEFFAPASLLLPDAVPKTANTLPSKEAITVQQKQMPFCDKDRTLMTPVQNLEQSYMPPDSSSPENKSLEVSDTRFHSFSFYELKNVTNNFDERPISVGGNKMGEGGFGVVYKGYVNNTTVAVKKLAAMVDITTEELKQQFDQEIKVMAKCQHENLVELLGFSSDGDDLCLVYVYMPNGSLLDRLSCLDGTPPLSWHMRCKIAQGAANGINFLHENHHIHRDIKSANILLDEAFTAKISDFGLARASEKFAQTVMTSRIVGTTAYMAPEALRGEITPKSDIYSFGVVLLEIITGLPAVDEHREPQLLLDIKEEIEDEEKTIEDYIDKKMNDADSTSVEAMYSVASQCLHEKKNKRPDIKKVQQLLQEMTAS
Particulars: read-out: percentage of control activity (POC), IRAK4. The essentials: as §1

The target of the next assay is T3, Lck (Homo sapiens, UniProt P06239).
T3 construct: Eurofins Pharma Discovery Services (contract assay service)
As to conditions: for remaining activity at 10 µM: read-out: percentage of control activity (POC), Lck. The essentials: as §1

Another assay concerns the target T4, PRAK (Homo sapiens, UniProt Q8IW41).
T4 construct: purchased Eurofins Pharma Discovery Services (KinaseProfiler; Cerep BioPrint panel)
T4 sequence (Q8IW41 1-473): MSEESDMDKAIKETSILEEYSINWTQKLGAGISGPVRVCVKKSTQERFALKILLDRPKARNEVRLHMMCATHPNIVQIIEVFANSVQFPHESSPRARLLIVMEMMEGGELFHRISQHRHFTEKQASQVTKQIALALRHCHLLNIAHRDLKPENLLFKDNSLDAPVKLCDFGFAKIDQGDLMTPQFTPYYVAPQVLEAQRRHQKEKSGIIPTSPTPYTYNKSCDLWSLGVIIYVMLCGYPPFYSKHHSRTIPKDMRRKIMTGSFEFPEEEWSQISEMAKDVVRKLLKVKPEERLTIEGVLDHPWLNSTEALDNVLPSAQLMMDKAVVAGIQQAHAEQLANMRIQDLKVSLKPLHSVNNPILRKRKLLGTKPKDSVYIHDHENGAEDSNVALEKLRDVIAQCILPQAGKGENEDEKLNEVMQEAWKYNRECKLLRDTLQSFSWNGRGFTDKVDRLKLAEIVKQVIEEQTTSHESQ
As to conditions: read-out: percentage of control activity (POC), PRAK. The essentials: as §1

In a further assay the target is T5, Rse (Homo sapiens, UniProt Q06418).
T5 construct: purchased Eurofins Pharma Discovery Services (KinaseProfiler; Cerep BioPrint panel)
T5 sequence (Q06418 41-890): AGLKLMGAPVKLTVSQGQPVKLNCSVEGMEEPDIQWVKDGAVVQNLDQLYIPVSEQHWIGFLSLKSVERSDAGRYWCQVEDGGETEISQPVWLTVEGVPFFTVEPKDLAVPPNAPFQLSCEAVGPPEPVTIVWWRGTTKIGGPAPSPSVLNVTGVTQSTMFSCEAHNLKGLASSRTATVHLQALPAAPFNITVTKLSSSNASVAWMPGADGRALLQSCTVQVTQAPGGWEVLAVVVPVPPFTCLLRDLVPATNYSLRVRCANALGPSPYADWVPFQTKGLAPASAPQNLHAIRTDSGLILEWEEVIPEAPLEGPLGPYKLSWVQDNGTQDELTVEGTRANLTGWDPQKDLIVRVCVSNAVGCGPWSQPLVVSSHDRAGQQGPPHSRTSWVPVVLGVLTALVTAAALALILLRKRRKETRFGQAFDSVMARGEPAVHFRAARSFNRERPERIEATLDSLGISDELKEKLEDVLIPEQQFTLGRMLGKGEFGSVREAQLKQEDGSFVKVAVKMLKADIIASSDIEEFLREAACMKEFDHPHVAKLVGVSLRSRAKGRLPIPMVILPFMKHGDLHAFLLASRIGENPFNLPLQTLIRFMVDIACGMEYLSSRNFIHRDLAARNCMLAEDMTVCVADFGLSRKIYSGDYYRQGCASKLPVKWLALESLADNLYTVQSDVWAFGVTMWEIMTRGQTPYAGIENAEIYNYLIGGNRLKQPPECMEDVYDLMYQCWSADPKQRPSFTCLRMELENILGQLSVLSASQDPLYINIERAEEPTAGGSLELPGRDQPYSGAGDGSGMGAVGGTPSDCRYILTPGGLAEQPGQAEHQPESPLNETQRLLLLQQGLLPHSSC
Particulars: read-out: percentage of control activity (POC), Rse. The essentials:
as §1

A word on the inhibition: it is how much of the control response was suppressed. As a reminder, the IC50 is the concentration at which inhibition is half-maximal.

T3 sequence (P06239 whole entry, species assumed): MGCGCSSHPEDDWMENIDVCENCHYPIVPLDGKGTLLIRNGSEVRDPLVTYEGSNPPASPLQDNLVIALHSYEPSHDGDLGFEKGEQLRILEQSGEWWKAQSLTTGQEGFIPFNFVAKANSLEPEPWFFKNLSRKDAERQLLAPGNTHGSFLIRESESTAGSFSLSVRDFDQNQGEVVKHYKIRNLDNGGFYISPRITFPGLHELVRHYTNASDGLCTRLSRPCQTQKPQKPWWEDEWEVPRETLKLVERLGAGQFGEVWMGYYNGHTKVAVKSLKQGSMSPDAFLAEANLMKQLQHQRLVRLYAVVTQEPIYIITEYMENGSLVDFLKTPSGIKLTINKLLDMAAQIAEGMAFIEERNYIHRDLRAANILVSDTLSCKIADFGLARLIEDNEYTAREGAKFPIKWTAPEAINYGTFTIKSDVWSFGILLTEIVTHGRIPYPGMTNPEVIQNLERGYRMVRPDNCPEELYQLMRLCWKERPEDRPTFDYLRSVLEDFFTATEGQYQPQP
T1 sequence (Q13557 whole entry): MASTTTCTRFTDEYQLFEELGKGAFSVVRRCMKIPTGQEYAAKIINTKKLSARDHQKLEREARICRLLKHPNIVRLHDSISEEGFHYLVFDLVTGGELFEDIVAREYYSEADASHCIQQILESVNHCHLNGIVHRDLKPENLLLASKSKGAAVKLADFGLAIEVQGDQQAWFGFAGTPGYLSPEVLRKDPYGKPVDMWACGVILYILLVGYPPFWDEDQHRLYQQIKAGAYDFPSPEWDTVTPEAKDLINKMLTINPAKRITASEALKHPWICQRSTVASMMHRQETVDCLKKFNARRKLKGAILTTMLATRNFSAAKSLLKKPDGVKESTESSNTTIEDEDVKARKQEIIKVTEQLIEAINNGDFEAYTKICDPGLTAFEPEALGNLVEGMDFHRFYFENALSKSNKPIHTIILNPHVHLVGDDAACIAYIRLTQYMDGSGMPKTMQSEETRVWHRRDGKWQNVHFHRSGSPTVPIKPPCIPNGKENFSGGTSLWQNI

`Cn1cc(-c2cccc(-c3nc(C(=O)NC4C5CC6CC4CC(O)(C6)C5)c(N)nc3N)c2)cn1` (stereo not drawn) [compound 4]: the remaining activity at 10 µM worked out at 93% on CaMKIIδ; 82% on IRAK4; 44% on Lck (10 μM); 83% at PRAK; 92% at Rse. Also, the inhibition at 10 µM against Lck (10 μM) was 56%. Besides, the IC50 on Lck (biochemical dose response, duplicate, read-out: Inhibition of indicated activity (IC50, μM): Lck) amounted to 3.33 µM.

For `COc1c(NC(=O)c2ccc(C)c(-c3nnc4c(NCC(C)(C)C)nccn34)c2)cc(C(C)(C)C)cc1NS(C)(=O)=O` [compound 7, reference compound], the remaining activity at 10 µM came to 96% on CaMKIIδ; 118% on IRAK4; 81% at Lck (10 μM); 56% at PRAK; 107% at Rse.

On to `Cc1ccc(C(=O)NCC2CC2)cc1-c1ccc2c(c1)NC(=O)C21CCCC1` [compound 3], for which the remaining activity at 10 µM on CaMKIIδ turned out to be 103%; at IRAK4 it was 92%; at Lck (10 μM), 102%; at PRAK, 65%; at Rse, 99%.

On to `CC(C)(C)N1CCC(c2cc(-c3ccc(F)cc3Cl)c3cc[n+]([O-])c(-c4c(Cl)cccc4Cl)c3n2)CC1` [compound 2], for which the remaining activity at 10 µM at CaMKIIδ is 100%; at IRAK4, 95%; on Lck (10 μM), 98%; on PRAK, 107%; at Rse, 109%.

`CS(=O)(=O)N1CCN(c2ccc(Nc3ncc(C(N)=O)c(NC4CC4)n3)cc2)CC1` [compound 5]: the remaining activity at 10 µM was 27% on CaMKIIδ; 13% on IRAK4; 4% at Lck (10 μM); 85% on PRAK; 33% on Rse.

For the origin of these results see PMC5761851, “Application of a phenotypic drug discovery strategy to identify biological and chemical starting points for inhibition of TSLP production in lung epithelial cells” (PLoS ONE, 2018).
